Among the data in ChEMBL document CHEMBL2057125, “Structural simplification of bioactive natural products with multicomponent synthesis. 4. 4H-pyrano-[2,3-b]naphthoquinones with anticancer activity” (2012) are GI50 and Activity values, retold here.

As a reminder, the GI50 is the concentration at which growth is held to half of that of the control.

Structures are written as SMILES.

In one assay the test system is HeLa. The assay can be described thus: Antiproliferative activity against human HeLa cells assessed as reduction in cell viability after 48 hrs by MTT assay. The class given is functional. Background: Tetrazolium dyes change colour on reduction, which living cells bring about.
Assay [1] can be described thus: Antiproliferative activity against human Hs683 cells assessed as reduction in cell viability after 72 hrs by MTT assay. The class given is functional. The settings on record: Hs 683, 72 h.
A further assay has as its system SK-MEL-28. The assay can be described thus: Antiproliferative activity against human SK-MEL-28 cells assessed as reduction in cell viability after 72 hrs by MTT assay. The class given is functional. Conditions: SK-MEL-28, 72 h.
The test system of assay [2] is Jurkat. The assay can be described thus: Antiproliferative activity against human Jurkat cells assessed as reduction in cell viability after 48 hrs by MTT assay. The class given is functional.
Assay [3] in a line: Antiproliferative activity against human U373 cells assessed as reduction in cell viability after 72 hrs by MTT assay. The class given is functional, U-373MG ATCC. Conditions: U373 MG.
A short description of assay [4]: Antiproliferative activity against human OE21 cells assessed as reduction in cell viability after 72 hrs by MTT assay. The class given is functional. The settings on record: OE21, 72 h.
In the next assay the test system is PC-3. As to the kind of experiment: Antiproliferative activity against human PC3 cells assessed as reduction in cell viability after 72 hrs by MTT assay. The class given is functional. The settings on record: PC-3, 72 h.
Assay [5] can be described thus: Antiproliferative activity against human MCF7/AZ cells assessed as reduction in cell viability after 48 hrs by MTT assay. The class given is functional.
The subject of another assay is LoVo. The assay can be described thus: Antiproliferative activity against human LoVo cells assessed as reduction in cell viability after 72 hrs by MTT assay. The class given is functional.
In another assay the test system is A549. As to the kind of experiment: Antiproliferative activity against human A549 cells assessed as reduction in cell viability after 72 hrs by MTT assay. Conditions: A549, 72 h. The class given is functional.
The subject of assay [6] is Jurkat. The assay can be described thus: Induction of apoptosis in human Jurkat cells assessed as apoptotic cells at 50 uM after 24 hrs using annexin-V/Propidium iodide by flow cytometry. The class given is functional. (In general: A flow cytometer gives signals particle by particle.)

Regarding `N#CC1=C(N)OC2=C(C(=O)c3ccccc3C2=O)C1c1cccc(Oc2ccccc2)c1` (stereo not drawn), the GI50 in the assay with HeLa was determined as 4 µM; in assay [1], 5 µM; in the assay on SK-MEL-28, 4.5 µM; in the assay on Jurkat [2], 17.9 µM; in [3], 3.4 µM; in assay [4] it was 2.2 µM. Further, the GI50 in the assay with PC-3 was 6.2 µM; in [5], 2.2 µM; in the assay with LoVo, 3.4 µM; in the assay on A549, 5 µM. Moreover, in the assay with Jurkat [6], the Activity came out at 50%.

For the compound `N#CC1=C(N)OC2=C(C(=O)c3ccccc3C2=O)C1c1ccc(OC(F)(F)F)cc1` (stereo not drawn), the values for the GI50 (in the assay with HeLa; with Jurkat [2]; in [5]) were 4.3 µM, 105 µM and 7.1 µM, respectively. Besides, the Activity in the assay on Jurkat [6] came to 13.5%.

Consider `N#CC1=C(N)OC2=C(C(=O)c3ccccc3C2=O)C1c1cccc(Cl)c1` (stereo not drawn), for which the GI50 is 77.5 µM in the assay on HeLa, 108 µM in the assay with Jurkat [2] and 59.8 µM in assay [5]. Besides, the Activity in the assay with Jurkat [6] is given as 22%.

With `N#CC1=C(N)OC2=C(C(=O)c3ccccc3C2=O)C1c1ccccc1Cl` (stereo not drawn), the GI50 in the assay with HeLa stood at 20.5 µM; with Jurkat [2] it was 185 µM; in assay [5], 19 µM. Also, in the assay on Jurkat [6], the Activity is on record as 6.3%.

Turning to `N#CC1=C(N)OC2=C(C(=O)c3ccccc3C2=O)C1c1ccc(Cl)cc1` (stereo not drawn), the GI50 in the assay on HeLa is 31.7 µM; with Jurkat [2], 105 µM; in assay [5], 24 µM. For the same compound, in the assay on Jurkat [6], the Activity came out at 23.8%.

On to `N#CC1=C(N)OC2=C(C(=O)c3ccccc3C2=O)C1c1c(Cl)cccc1Cl` (stereo not drawn), for which the GI50 in the assay on HeLa came to 5.3 µM; in assay [1] it was 19.3 µM; in the assay on SK-MEL-28, 17.1 µM; in the assay on Jurkat [2], 172 µM; in assay [3], 12.8 µM; in assay [4], 17.4 µM. For the same compound, the GI50 stood at 6.2 µM in the assay with PC-3, 3.1 µM in [5], 4.3 µM with LoVo and 40.6 µM in the assay with A549. In addition, the Activity in the assay on Jurkat [6] is recorded as 5.1%.

Regarding `N#CC1=C(N)OC2=C(C(=O)c3ccccc3C2=O)C1c1cccc(Br)c1` (stereo not drawn), the results for the GI50 (in the assay with HeLa; with Jurkat [2]; in assay [5]) were 16.1 µM, 20 µM and 28.6 µM, respectively. Further, the Activity in the assay with Jurkat [6] is recorded as 48.4%.

As for `N#CC1=C(N)OC2=C(C(=O)c3ccccc3C2=O)C1c1ccccc1Br` (stereo not drawn), the GI50 in the assay with HeLa was 31.6 µM; with Jurkat [2] it was 30.7 µM; in assay [5], 26.3 µM. For the same compound, the Activity in the assay with Jurkat [6] was found to be 41.7%.

As to `N#CC1=C(N)OC2=C(C(=O)c3ccccc3C2=O)C1c1ccc(Br)cc1` (stereo not drawn), the GI50 in the assay on HeLa stood at 30 µM; in the assay with Jurkat [2] it was 38.3 µM; in assay [5], 22.8 µM. The Activity in the assay on Jurkat [6] was found to be 40.1%.

With `N#CC1=C(N)OC2=C(C(=O)c3ccccc3C2=O)C1c1c(F)cccc1Cl` (stereo not drawn), the GI50 with HeLa was found to be 34.4 µM; in the assay with Jurkat [2], 52.3 µM; in assay [5] it was 8 µM. Besides, the Activity in the assay with Jurkat [6] came out at 21.3%.

For `N#CC1=C(N)OC2=C(C(=O)c3ccccc3C2=O)C1c1ccc(C(F)(F)F)cc1` (stereo not drawn), the figures for the GI50 (with HeLa; in the assay on Jurkat [2]; in assay [5]) were 11.8 µM, 80.5 µM and 5.6 µM, respectively. Further, in the assay with Jurkat [6], the Activity came to 15.5%.

For the compound `N#CC1=C(N)OC2=C(C(=O)c3ccccc3C2=O)C1c1ccc(-c2ccccc2)cc1` (stereo not drawn), the GI50 in the assay with HeLa was 23.6 µM; with Jurkat [2], 122 µM; in [5], 26 µM. The Activity in the assay with Jurkat [6] is reported as 11.2%.

In the case of `N#CC1=C(N)OC2=C(C(=O)c3ccccc3C2=O)C1c1ccccc1` (stereo not drawn), the concentration for 50% growth inhibition (GI50) in the assay on HeLa was determined as 23.5 µM; in the assay with Jurkat [2] it was 43.3 µM; in assay [5], 18.5 µM. In the assay on Jurkat [6], the Activity was found to be 16.7%.

For `N#CC1=C(N)OC2=C(C(=O)c3ccccc3C2=O)C1c1cccc([N+](=O)[O-])c1` (stereo not drawn), the GI50 in the assay on HeLa amounted to 9.1 µM; in the assay with Jurkat [2], 19.1 µM; in assay [5], 10.8 µM. Further, the Activity in the assay with Jurkat [6] is recorded as 33.6%.

Consider `N#CC1=C(N)OC2=C(C(=O)c3ccccc3C2=O)C1c1ccccc1[N+](=O)[O-]` (stereo not drawn), for which the GI50 with HeLa worked out at 11.2 µM; in the assay with Jurkat [2], 16.8 µM; in assay [5], 8.3 µM. Moreover, the Activity in the assay on Jurkat [6] was 25%.

`N#CC1=C(N)OC2=C(C(=O)c3ccccc3C2=O)C1c1ccc([N+](=O)[O-])cc1` (stereo not drawn): the GI50 in the assay on HeLa turned out to be 16.8 µM; with Jurkat [2] it was 24.3 µM; in assay [5], 9.8 µM. The Activity with Jurkat [6] was determined as 23.1%.

With `N#CC1=C(N)OC2=C(C(=O)c3ccccc3C2=O)C1c1ccc(C(=O)O)cc1` (stereo not drawn), the GI50 in the assay on HeLa amounted to 119 µM; in the assay on Jurkat [2], 332 µM; in [5] it was 94.4 µM. In addition, in the assay with Jurkat [6], the Activity was 4.1%.

Consider `N#CC1=C(N)OC2=C(C(=O)c3ccccc3C2=O)C1c1ccc(O)cc1` (stereo not drawn), for which the GI50 worked out at 30.6 µM in the assay on HeLa, 85 µM in the assay with Jurkat [2] and 8.6 µM in assay [5]. The Activity with Jurkat [6] is on record as 16.7%.

As for `CC(C)c1ccc(C2C(C#N)=C(N)OC3=C2C(=O)c2ccccc2C3=O)cc1` (stereo not drawn), the GI50 with HeLa worked out at 62.5 µM; in the assay on Jurkat [2], 80.6 µM; in [5], 34 µM. Also, the Activity with Jurkat [6] worked out at 2.9%.

Turning to `Cc1ccc(C2C(C#N)=C(N)OC3=C2C(=O)c2ccccc2C3=O)o1` (stereo not drawn), the GI50 in the assay with HeLa amounted to 54.3 µM; in the assay with Jurkat [2], 47.8 µM; in assay [5], 51.6 µM. For the same compound, in the assay with Jurkat [6], the Activity was 57.8%.

Take `N#CC1=C(N)OC2=C(C(=O)c3ccccc3C2=O)C1c1cccs1` (stereo not drawn): the GI50 is 94 µM with HeLa, 82.4 µM with Jurkat [2] and 36.9 µM in [5]. For the same compound, in the assay with Jurkat [6], the Activity turned out to be 11.2%.

As for `N#CC1=C(N)OC2=C(C(=O)c3ccccc3C2=O)C1c1ccncc1` (stereo not drawn), the GI50 in the assay with HeLa turned out to be 14.5 µM; in the assay with Jurkat [2], 23.9 µM; in [5] it was 6 µM. For the same compound, the Activity with Jurkat [6] came out at 28.6%.

In the case of `N#CC1=C(N)OC2=C(C(=O)c3ccccc3C2=O)C1c1cccnc1` (stereo not drawn), the GI50 in the assay on HeLa came to 14.2 µM; with Jurkat [2], 20.4 µM; in [5] it was 3.4 µM. Besides, in the assay on Jurkat [6], the Activity is on record as 20.8%.

Take `CC1(C)CCC2=C(O1)C(=O)c1ccccc1C2=O` [ALPHA-LAPACHONE]: the GI50 worked out at 25 µM with HeLa; 9 µM in assay [1]; 4.7 µM in the assay with SK-MEL-28; 75 µM in the assay with Jurkat [2]; 23.1 µM in assay [3]; 22.7 µM in [4]. In addition, the GI50 in the assay on PC-3 was found to be 13 µM; in assay [5] it was 16.7 µM; in the assay on LoVo, 24.4 µM; in the assay on A549, 16.3 µM. The Activity with Jurkat [6] was determined as 7.4%.

Regarding `CC1(C)CCC2=C(O1)c1ccccc1C(=O)C2=O` [LAPACHONE], the GI50 in the assay on HeLa amounted to 4.6 µM; in [1] it was 0.4 µM; in the assay with SK-MEL-28, 0.6 µM; in the assay with Jurkat [2], 6.1 µM; in [3], 0.4 µM; in assay [4], 0.6 µM. In addition, the GI50 in the assay with PC-3 stood at 0.01 µM; in assay [5], 6 µM; in the assay on LoVo, 0.3 µM; with A549, 0.8 µM. In the assay on Jurkat [6], the Activity worked out at 51%.
